In article PMC5290327, “SC83288 is a clinical development candidate for the treatment of severe malaria” (Nature Communications, 2017):

Key:
Assay in all cases: KINOMEscan
Format in all cases: binding
Conditions in all cases: read-out: Remaining enzyme activity
MRCKA = target: T1, MRCKA (Homo sapiens, UniProt Q5VT25)
T1 construct: purchased Ambit (DiscoverX) KINOMEscan; Cerep
Description: (§1) The KINOMEscan was carried out by Ambit (San Diego, USA) according to a previously established protocol. The experiment was based on a competition binding assay that quantitatively measures the ability of a compound to compete with an immobilized, active-site directed ligand. The assay is performed by combining three components: DNA-tagged kinase; immobilized ligand; and a test compound. The ability of the test compound to compete with the immobilized ligand is measured via quantitative PCR of the DNA tag.
(§2) For most assays, kinase-tagged T7 phage strains were grown in parallel in 24-well blocks in an Escherichia coli host derived from the BL21 strain. E. coli were grown to log-phase and infected with T7 phage from a frozen stock and incubated with shaking at 32 °C until lysis (90–150 min). The lysates were centrifuged (6,000g) and filtered (0.2 μm) to remove cell debris. The remaining kinases were produced in HEK-293 cells (Sigma Aldrich, catalogue number: 85120602) and subsequently tagged with DNA for quantitative PCR detection. […] The liganded beads were blocked with excess biotin and washed with blocking buffer (SeaBlock (Pierce), 1% bovine serum albumin, 0.05% Tween 20 and 1 mM dithiothreitol) to remove unbound ligand and to reduce non-specific phage binding. […] SC81458 was prepared as 40x stock in 100% DMSO and directly diluted into the assay to a final concentration of 10 μM. All reactions were performed in polypropylene 384-well plates in a final volume of 0.04 ml. […] The kinase concentration in the eluates was measured by quantitative PCR.

TGFBR2 = target: T2, TGFBR2 (Homo sapiens, UniProt P37173)
T2 construct: purchased Ambit (DiscoverX) KINOMEscan; Cerep
Description: as §1, §2

PLK4 = target: T3, PLK4 (Homo sapiens, UniProt O00444)
T3 construct: purchased Ambit (DiscoverX) KINOMEscan; Cerep
Description: as §1, §2

FGR = target: T4, FGR (Homo sapiens, UniProt P09769)
T4 construct: purchased Ambit (DiscoverX) KINOMEscan; Cerep
Description: as §1, §2

TAOK3 = target: T5, TAOK3 (Homo sapiens, UniProt Q9H2K8)
T5 construct: purchased Ambit (DiscoverX) KINOMEscan; Cerep
Description: as §1, §2

ULK3 = target: T6, ULK3 (Homo sapiens, UniProt Q6PHR2)
T6 construct: purchased Ambit (DiscoverX) KINOMEscan; Cerep
Description: as §1, §2

PLK1 = target: T7, PLK1 (Homo sapiens, UniProt P53350)
T7 construct: purchased Ambit (DiscoverX) KINOMEscan; Cerep
Description: as §1, §2

ERBB3 = target: T8, ERBB3 (Homo sapiens, UniProt P21860)
T8 construct: purchased Ambit (DiscoverX) KINOMEscan; Cerep
Description: as §1, §2

PIK3Cg = target: T9, PIK3Cg (Homo sapiens, UniProt P48736)
T9 construct: purchased Ambit (DiscoverX) KINOMEscan; Cerep
Description: as §1, §2

RAF1 = target: T10, RAF1 (Homo sapiens, UniProt P04049)
T10 construct: purchased Ambit (DiscoverX) KINOMEscan; Cerep
Description: as §1, §2

PKN1 = target: T11, PKN1 (Homo sapiens, UniProt Q16512)
T11 construct: purchased Ambit (DiscoverX) KINOMEscan; Cerep
T11 sequence (Q16512 whole entry): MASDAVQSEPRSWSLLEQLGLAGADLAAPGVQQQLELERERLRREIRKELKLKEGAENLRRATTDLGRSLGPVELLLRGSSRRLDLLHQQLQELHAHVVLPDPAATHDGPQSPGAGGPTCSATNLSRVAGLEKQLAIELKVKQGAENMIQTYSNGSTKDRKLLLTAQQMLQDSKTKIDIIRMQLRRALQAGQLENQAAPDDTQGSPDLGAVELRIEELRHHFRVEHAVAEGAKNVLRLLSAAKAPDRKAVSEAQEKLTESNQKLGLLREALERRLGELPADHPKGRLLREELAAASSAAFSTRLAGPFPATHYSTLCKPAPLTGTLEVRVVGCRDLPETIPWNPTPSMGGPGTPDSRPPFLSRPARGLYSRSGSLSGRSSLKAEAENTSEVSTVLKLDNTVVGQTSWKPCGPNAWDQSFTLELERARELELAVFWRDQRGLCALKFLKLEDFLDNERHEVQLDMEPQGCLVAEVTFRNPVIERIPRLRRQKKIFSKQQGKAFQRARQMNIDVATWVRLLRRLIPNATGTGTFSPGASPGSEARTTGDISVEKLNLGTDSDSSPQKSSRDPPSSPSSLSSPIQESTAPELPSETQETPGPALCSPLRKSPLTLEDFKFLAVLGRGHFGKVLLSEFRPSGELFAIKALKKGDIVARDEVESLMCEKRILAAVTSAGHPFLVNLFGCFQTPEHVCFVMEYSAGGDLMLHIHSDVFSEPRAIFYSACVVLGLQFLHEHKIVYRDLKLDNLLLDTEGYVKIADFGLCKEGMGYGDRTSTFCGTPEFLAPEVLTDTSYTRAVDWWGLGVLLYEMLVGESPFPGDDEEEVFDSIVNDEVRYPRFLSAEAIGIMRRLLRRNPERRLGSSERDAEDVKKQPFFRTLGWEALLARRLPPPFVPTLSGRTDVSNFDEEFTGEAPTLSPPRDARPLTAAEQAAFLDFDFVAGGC
Description: as §1, §2

FLT3(N841I) = target: T12, FLT3(N841I) (Homo sapiens, UniProt P36888, N841I)
T12 construct: purchased Ambit (DiscoverX) KINOMEscan; Cerep
Description: as §1, §2

AURKA = target: T13, AURKA (Homo sapiens, UniProt O14965)
T13 construct: purchased Ambit (DiscoverX) KINOMEscan; Cerep
T13 sequence (O14965 whole entry): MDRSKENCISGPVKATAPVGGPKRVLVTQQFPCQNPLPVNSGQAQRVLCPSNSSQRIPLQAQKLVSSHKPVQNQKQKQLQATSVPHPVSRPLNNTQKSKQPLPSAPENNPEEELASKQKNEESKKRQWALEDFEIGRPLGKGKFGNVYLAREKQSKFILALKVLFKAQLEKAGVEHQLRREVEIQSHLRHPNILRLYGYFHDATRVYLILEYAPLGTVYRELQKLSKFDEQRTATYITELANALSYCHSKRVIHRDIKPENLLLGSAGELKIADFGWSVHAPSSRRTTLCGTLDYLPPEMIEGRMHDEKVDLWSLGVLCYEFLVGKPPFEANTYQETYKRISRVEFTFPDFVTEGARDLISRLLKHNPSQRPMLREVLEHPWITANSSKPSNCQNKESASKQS
Description: as §1, §2

PIK3C2b = target: T14, PIK3C2b (Homo sapiens, UniProt O00750)
T14 construct: purchased Ambit (DiscoverX) KINOMEscan; Cerep
T14 sequence (O00750 whole entry): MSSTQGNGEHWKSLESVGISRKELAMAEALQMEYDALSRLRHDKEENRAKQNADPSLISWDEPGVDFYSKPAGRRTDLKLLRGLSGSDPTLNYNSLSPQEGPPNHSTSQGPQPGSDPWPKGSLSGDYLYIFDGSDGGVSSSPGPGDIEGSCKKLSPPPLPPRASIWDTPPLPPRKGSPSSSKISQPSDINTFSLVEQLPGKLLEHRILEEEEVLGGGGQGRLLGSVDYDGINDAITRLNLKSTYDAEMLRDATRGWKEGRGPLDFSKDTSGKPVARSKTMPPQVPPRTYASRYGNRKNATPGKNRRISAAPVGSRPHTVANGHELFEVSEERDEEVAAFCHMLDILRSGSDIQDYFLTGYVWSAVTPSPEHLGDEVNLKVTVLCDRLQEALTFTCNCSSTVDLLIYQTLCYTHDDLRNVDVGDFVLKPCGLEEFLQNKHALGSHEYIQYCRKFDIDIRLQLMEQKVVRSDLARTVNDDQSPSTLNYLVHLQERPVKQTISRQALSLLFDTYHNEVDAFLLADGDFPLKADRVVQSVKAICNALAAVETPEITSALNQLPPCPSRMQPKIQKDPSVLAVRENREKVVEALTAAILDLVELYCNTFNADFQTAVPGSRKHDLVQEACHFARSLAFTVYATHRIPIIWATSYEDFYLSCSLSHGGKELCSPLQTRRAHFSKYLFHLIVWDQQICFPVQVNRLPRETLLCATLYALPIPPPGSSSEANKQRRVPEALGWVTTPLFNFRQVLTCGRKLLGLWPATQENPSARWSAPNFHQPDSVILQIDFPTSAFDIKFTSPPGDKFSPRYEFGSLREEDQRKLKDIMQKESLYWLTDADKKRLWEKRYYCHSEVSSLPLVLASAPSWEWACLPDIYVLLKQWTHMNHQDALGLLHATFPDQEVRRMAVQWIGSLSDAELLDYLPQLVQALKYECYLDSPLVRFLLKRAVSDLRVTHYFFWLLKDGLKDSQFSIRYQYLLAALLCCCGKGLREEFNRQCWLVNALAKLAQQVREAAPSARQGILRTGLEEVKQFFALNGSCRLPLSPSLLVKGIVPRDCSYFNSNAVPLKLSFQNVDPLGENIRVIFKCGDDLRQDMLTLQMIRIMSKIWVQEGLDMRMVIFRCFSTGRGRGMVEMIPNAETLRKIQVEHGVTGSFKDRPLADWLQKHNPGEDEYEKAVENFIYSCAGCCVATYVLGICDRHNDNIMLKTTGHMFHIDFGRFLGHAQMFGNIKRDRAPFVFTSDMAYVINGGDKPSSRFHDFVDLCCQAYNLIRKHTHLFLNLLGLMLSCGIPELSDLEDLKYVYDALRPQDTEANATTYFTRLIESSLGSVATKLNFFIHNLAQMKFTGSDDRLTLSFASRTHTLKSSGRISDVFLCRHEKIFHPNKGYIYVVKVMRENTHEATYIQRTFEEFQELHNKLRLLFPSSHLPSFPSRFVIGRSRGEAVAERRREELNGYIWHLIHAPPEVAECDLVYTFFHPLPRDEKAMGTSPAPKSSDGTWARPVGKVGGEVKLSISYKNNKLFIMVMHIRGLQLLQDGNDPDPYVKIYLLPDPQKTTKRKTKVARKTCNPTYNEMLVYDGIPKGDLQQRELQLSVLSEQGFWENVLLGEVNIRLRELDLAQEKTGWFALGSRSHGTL
Description: as §1, §2

PRKCE = target: T15, PRKCE (Homo sapiens, UniProt Q02156)
T15 construct: purchased Ambit (DiscoverX) KINOMEscan; Cerep
Description: as §1, §2

TBK1 = target: T16, TBK1 (Homo sapiens, UniProt Q9UHD2)
T16 construct: purchased Ambit (DiscoverX) KINOMEscan; Cerep
Description: as §1, §2

EPHA3 = target: T17, EPHA3 (Homo sapiens, UniProt P29320)
T17 construct: purchased Ambit (DiscoverX) KINOMEscan; Cerep
Description: as §1, §2

TEC = target: T18, TEC (Homo sapiens, UniProt P42680)
T18 construct: purchased Ambit (DiscoverX) KINOMEscan; Cerep
T18 sequence (P42680 whole entry): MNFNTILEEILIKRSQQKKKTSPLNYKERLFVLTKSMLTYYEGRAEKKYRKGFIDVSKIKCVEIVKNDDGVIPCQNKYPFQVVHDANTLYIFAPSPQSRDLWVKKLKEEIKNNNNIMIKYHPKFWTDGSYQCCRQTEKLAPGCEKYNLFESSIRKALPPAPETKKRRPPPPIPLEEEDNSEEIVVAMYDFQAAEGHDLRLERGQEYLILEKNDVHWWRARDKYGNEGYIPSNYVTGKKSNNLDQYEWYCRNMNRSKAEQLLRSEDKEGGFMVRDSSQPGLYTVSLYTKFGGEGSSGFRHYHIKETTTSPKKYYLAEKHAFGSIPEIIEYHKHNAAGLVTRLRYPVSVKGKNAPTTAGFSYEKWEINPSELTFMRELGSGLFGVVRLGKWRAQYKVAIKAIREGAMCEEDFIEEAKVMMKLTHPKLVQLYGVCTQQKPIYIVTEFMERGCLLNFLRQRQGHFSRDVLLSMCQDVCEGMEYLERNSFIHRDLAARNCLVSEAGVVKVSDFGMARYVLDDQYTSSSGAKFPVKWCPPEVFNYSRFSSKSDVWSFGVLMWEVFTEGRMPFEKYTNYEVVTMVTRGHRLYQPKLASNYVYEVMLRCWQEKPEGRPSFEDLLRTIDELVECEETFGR
Description: as §1, §2

MARK1 = target: T19, MARK1 (Homo sapiens, UniProt Q9P0L2)
T19 construct: purchased Ambit (DiscoverX) KINOMEscan; Cerep
Description: as §1, §2

CDK7 = target: T20, CDK7 (Homo sapiens, UniProt P50613)
T20 construct: purchased Ambit (DiscoverX) KINOMEscan; Cerep
Description: as §1, §2

BRAF(V600E) = target: T21, BRAF(V600E) (Homo sapiens, UniProt P15056, V600E)
T21 construct: purchased Ambit (DiscoverX) KINOMEscan; Cerep
Description: as §1, §2

TTK = target: T22, TTK (Homo sapiens, UniProt P33981)
T22 construct: purchased Ambit (DiscoverX) KINOMEscan; Cerep
Description: as §1, §2

BMPR1a = target: T23, BMPR1a (Homo sapiens, UniProt P36894)
T23 construct: purchased Ambit (DiscoverX) KINOMEscan; Cerep
Description: as §1, §2

PYK2 = target: T24, PYK2 (Homo sapiens, UniProt Q14289)
T24 construct: purchased Ambit (DiscoverX) KINOMEscan; Cerep
T24 sequence (Q14289 whole entry): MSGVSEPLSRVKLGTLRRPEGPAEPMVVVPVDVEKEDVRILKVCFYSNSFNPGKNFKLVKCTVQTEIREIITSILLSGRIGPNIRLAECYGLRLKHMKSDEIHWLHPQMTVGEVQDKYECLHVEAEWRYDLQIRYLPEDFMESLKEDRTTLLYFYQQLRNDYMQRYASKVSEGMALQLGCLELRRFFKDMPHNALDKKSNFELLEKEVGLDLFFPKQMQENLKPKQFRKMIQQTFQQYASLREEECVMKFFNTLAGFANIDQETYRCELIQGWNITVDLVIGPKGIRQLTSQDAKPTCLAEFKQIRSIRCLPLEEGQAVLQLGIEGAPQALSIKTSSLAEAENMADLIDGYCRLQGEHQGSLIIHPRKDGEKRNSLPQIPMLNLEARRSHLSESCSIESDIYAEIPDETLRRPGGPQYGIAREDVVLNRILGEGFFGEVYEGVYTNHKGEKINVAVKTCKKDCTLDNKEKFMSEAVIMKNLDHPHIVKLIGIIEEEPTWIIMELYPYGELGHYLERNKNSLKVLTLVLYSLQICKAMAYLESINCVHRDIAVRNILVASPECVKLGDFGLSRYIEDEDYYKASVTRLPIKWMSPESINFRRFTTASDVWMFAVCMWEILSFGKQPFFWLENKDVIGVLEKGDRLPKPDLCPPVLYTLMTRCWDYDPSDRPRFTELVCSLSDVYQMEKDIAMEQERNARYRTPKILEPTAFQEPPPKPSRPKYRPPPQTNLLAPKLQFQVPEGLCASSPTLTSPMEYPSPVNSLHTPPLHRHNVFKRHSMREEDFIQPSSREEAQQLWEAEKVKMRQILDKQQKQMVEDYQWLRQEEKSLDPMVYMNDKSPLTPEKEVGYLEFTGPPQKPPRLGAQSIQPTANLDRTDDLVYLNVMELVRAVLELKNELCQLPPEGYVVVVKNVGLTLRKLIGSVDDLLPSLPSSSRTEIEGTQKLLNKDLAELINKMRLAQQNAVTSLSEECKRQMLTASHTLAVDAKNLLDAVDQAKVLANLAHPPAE
Description: as §1, §2

PCTK2 = target: T25, PCTK2 (Homo sapiens, UniProt Q00537)
T25 construct: purchased Ambit (DiscoverX) KINOMEscan; Cerep
Description: as §1, §2

MEK6 = target: T26, MEK6 (Homo sapiens, UniProt P52564)
T26 construct: purchased Ambit (DiscoverX) KINOMEscan; Cerep
Description: as §1, §2

ACVRL1 = target: T27, ACVRL1 (Homo sapiens, UniProt P37023)
T27 construct: purchased Ambit (DiscoverX) KINOMEscan; Cerep
T27 sequence (P37023 22-503): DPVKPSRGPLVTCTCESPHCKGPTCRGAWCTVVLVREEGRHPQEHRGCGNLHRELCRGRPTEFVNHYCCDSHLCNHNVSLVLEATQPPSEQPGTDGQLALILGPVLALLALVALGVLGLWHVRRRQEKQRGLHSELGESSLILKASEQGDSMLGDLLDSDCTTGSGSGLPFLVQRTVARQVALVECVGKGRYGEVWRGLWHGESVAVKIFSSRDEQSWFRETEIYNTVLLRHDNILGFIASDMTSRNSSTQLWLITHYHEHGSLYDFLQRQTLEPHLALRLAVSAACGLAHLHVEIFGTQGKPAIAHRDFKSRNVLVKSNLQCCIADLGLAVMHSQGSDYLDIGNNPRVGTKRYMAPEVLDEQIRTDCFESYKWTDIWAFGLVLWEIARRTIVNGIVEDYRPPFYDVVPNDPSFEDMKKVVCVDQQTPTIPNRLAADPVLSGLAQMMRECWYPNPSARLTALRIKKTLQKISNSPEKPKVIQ
Description: as §1, §2

PRKCQ = target: T28, PRKCQ (Homo sapiens, UniProt Q04759)
T28 construct: purchased Ambit (DiscoverX) KINOMEscan; Cerep
Description: as §1, §2

PHKG1 = target: T29, PHKG1 (Homo sapiens, UniProt Q16816)
T29 construct: purchased Ambit (DiscoverX) KINOMEscan; Cerep
Description: as §1, §2

DCAMKL2 = target: T30, DCAMKL2 (Homo sapiens, UniProt Q8N568)
T30 construct: purchased Ambit (DiscoverX) KINOMEscan; Cerep
Description: as §1, §2

STK16 = target: T31, STK16 (Homo sapiens, UniProt O75716)
T31 construct: purchased Ambit (DiscoverX) KINOMEscan; Cerep
Description: as §1, §2

JNK3 = target: T32, JNK3 (Homo sapiens, UniProt P53779)
T32 construct: purchased Ambit (DiscoverX) KINOMEscan; Cerep
Description: as §1, §2

TIE2 = target: T33, TIE2 (Homo sapiens, UniProt Q02763)
T33 construct: purchased Ambit (DiscoverX) KINOMEscan; Cerep
Description: as §1, §2

STK39 = target: T34, STK39 (Homo sapiens, UniProt Q9UEW8)
T34 construct: purchased Ambit (DiscoverX) KINOMEscan; Cerep
Description: as §1, §2

MLK3 = target: T35, MLK3 (Homo sapiens, UniProt Q16584)
T35 construct: purchased Ambit (DiscoverX) KINOMEscan; Cerep
Description: as §1, §2

Work on `CCCCN1CCN(C(=N)c2cccc(NC(=O)Nc3ccc(S(=O)(=O)NCc4ccc(S(N)(=O)=O)cc4)cc3)c2)CC1` [SC81458, 4-(3-(3-((4-butylpiperazin-1-yl)(imino)methyl)phenyl)ureido)-N-(4-sulfamoylbenzyl) benzenesulfonamide] yielded a remaining binding at 10 µM (MRCKA) of 100%, a remaining binding at 10 µM (TGFBR2) of 80% and a remaining binding at 10 µM (PLK4) of 93%. For the same compound, the remaining binding at 10 µM (FGR) was 100%, the remaining binding at 10 µM (TAOK3) was 100% and the remaining binding at 10 µM (ULK3) was 73%. The remaining binding at 10 µM (PLK1) was 96%, the remaining binding at 10 µM (ERBB3) was 81% and the remaining binding at 10 µM (PIK3Cg) was 92%. It also gave a remaining binding at 10 µM (RAF1) of 100%, a remaining binding at 10 µM (PKN1) of 100% and a remaining binding at 10 µM (FLT3(N841I)) of 100%. It also gave a remaining binding at 10 µM (AURKA) of 68%, a remaining binding at 10 µM (PIK3C2b) of 98% and a remaining binding at 10 µM (PRKCE) of 100%. For the same compound, the remaining binding at 10 µM (TBK1) was 100%, the remaining binding at 10 µM (EPHA3) was 100% and the remaining binding at 10 µM (TEC) was 90%. For the same compound, the remaining binding at 10 µM (MARK1) was 100%, the remaining binding at 10 µM (CDK7) was 100% and the remaining binding at 10 µM (BRAF(V600E)) was 100%. For the same compound, the remaining binding at 10 µM (TTK) was 91%, the remaining binding at 10 µM (BMPR1a) was 100% and the remaining binding at 10 µM (PYK2) was 98%. For the same compound, the remaining binding at 10 µM (PCTK2) was 97%, the remaining binding at 10 µM (MEK6) was 81% and the remaining binding at 10 µM (ACVRL1) was 72%. The remaining binding at 10 µM (PRKCQ) was 100%, the remaining binding at 10 µM (PHKG1) was 80% and the remaining binding at 10 µM (DCAMKL2) was 100%. It also gave a remaining binding at 10 µM (STK16) of 100%, a remaining binding at 10 µM (JNK3) of 100% and a remaining binding at 10 µM (TIE2) of 100%. For the same compound, the remaining binding at 10 µM (STK39) was 57% and the remaining binding at 10 µM (MLK3) was 100%.
